Test results published in patent US20080269202A1, “Novel 2,3-benzodiazepine derivatives and their use as antipsychotic agents” (Teva Pharmaceutical Industries Ltd., priority 2007, published 2008).

Key:
[1] = tested on: DOPA accumulation in eminentia mediana; experiment: DOPA accumulation in eminentia mediana after NSD-1015; assay type: in vivo, Sprague-Dawley rats
Procedure: Acute administration of atypical antipsychotics results in enhanced accumulation of dihydroxyphenylalanine (DOPA) in the […] after the inhibition of DOPA decarboxylase. In contrast, DOPA accumulation is not altered by the typical antipsychotics (Andersson, G, Albinsson, A, Pettersson, G, Arzneimittelforschung. 1990, 40, 237; Gudelsky, G. A., Meltzer, H. Y. Neuropsychopharmacology, 1989, 2, 45). The effect of the compound of Example 121 on DOPA-accumulation was measured by analyzing the levels of DOPA in […]. […] (EM), were dissected out from the brains on ice-cold plates and kept at -70° C. until they were assayed for DOPA by HPL-EC. Statistical analysis was carried out using one-way ANOVA followed by Duncan test.

[2] = tested on: PCP-induced disruption of PPI; experiment: PCP-induced disruption of pre-pulse inhibition (PPI)
Source text: Male C57B1/6J mice from Jackson Laboratories (Bar Harbor, Me.) were used in this study. Mice were received at 6-weeks of age. Upon receipt, mice were assigned unique identification numbers (tail marked) and were group housed in OPTImice cages. All animals remained housed in groups of four during the remainder of the study. […] During the period of acclimation, mice were examined on a regular basis, handled, and weighed to assure adequate health and suitability. Mice were maintained on a 12/12 light/dark cycle with the light on at 6:00 a.m. The room temperature was maintained between 20 and 23° C. with a relative humidity maintained between 30% and 70%. Food and water were provided ad libitum for the duration of the study. In each test, animals were randomly assigned across treatment groups.
All compounds were injected i.p. at a dose volume of 10 ml/kg. […] Phenylcyclohexylpiperidine (PCP) (8 mg/kg) was dissolved in sterile water.
The acoustic startle measured an unconditioned reflex response to external auditory stimulation. […] Mice were placed in the PPI chambers (Med Associates) for a 5 min session of white noise (70 dB) habituation.
After the acclimation period the test session was automatically started. The session started with a habituation block of 6 presentations of the startle stimulus alone, followed by 10 PPI blocks of 6 different types of trials. Trial types are: null (no stimuli), startle (120 dB), startle plus prepulse (4, 8 and 12 dB over background noise i.e. 74, 78 or 82 dB) and prepulse alone (82 dB). Trial types were presented at random within each block.
Each trial started with a 50 ms null period during which baseline movements were recorded. There was a subsequent 20 ms period during which prepulse stimuli were presented and responses to the prepulse measured. After further 100 ms the startle stimuli were presented for 40 ms and responses recorded for 100 ms from startle onset. Responses were sampled every ms. The inter-trial interval was variable with an average of 15 s (range from 10 to 20 s). In startle alone trials the basic auditory startle was measured and in prepulse plus startle trials the amount of inhibition of the normal startle was determined and expressed as a percentage of the basic startle response (from startle alone trials), excluding the startle response of the first habituation block.
Data were analyzed by analysis of variance (ANOVA) followed by post-hoc comparisons with Fisher Tests when appropriate. An effect was considered significant if p<0.05. Data are represented as the mean and standard error to the mean.

PCP-induced locomotion = experiment: PCP induced locomotor activity test (open field); assay type: in vivo, mice; settings: all doses (1, 3, 6, 10, 15 mg/kg) by gavage, PCP 5 mg/kg, vs vehicle
Procedure: The effects of compounds 121 and 183, administered orally, were also evaluated in the PCP induced locomotor activity test. Compound 121 was designated as “Compound A” and Compound 183 was designated as “Compound B” for purposes of this study. In general, the study aimed to test Compounds A and B for potential antipsychotic activity in PCP treated mice.
Compounds A & B were dissolved in 3% Tween: Compound A: 1, 3, 6, 10, and 15 mg/kg; Compound B: 3, 7, 14, 28, and 40 mg/kg; Compounds A+B were administered by gavage.
PCP (5 mg/kg) was dissolved in sterile injectable water.
The open field (“OF”) test assessed both anxiety and locomotor behavior. The open field chambers are Plexiglas square chambers (27.3×27.3×20.3 cm; Med Associates Inc., St Albans, Vt.) surrounded by infrared photobeams (16×16×16) to measure horizontal and vertical activity. The analysis was configured to divide the open field into a center and periphery zone. Distance traveled was measured from horizontal beam breaks as the mouse moved whereas rearing activity was measured from vertical beam breaks.
Mice were brought to the activity experimental room for at least 1 hr acclimation to the experimental room conditions prior to testing. […]
Data was analyzed to show baseline activity (activity during the 30 min prior to PCP injection) and PCP-induced activity (activity during the 60 min after PCP injection).

CNC(=O)N1N=C(c2ccc(N)cc2)c2cc(OC)c(OC)cc2C[C@H]1C [Example 121]
DOPA levels (pg/tissue block) ([1]; rat eminentia mediana, 10 mg/kg ip, mean ± SEM): 484 ± 34 pg/tissue block
DOPA levels (pg/tissue block) ([1]; rat eminentia mediana, 20 mg/kg ip, mean ± SEM): 652 ± 69 pg/tissue block
DOPA levels (pmol/mg prot) ([1]; rat eminentia mediana, 40 mg/kg ip, mean ± SEM): 94.0 ± 11.4 pmol/mg prot
effect on levels of DOPA in the EM of rats ([1]; result in words, vs saline): significantly increased
sedation and lethargy in the mice ([2]; 5 mg/kg i.p. (high dose)): caused sedation and lethargy
reversal of PCP-induced disruption of PPI ([2]; 2.5 and 5 mg/kg i.p., PCP 8 mg/kg, C57B1/6J mice): significantly reversed
effect on PCP induced locomotion (PCP-induced locomotion): significantly decreased
